Source: patent US20240277829A1, “HIV-1 VACCINATION AND SAMT-247 MICROBICIDE TO PREVENT HIV-1 INFECTION” (priority 2021, published 2024)

Legend:
NKG2A^+ cells = assay: Zinc chelation: macaque blood NK cells, SAMT-247 and/or gp120 peptides with or without TPEN; type: cell-based; settings: presence or absence of gp120 peptide
Description: (§1) Zinc chelation: The frequencies and cytokine levels of NK cells, monocytes and T cells were measured in macaque blood. Cryopreserved PBMCs were thawed and cultured in R10 in the presence/or absence of SAMT-247 and/or gp120 peptides for 12 hours. Cells were incubated with or without Zinc chelator TPEN (cat. #P4413-100 MG, 5 μM) for 12 h. Subsequently, cells were stained for live cells with Live/Dead Blue dye (cat. #L34962, 0.5 μl) from Thermofisher; followed by surface staining with the following: Alexa 700 anti-CD3 (SP34-2; cat. #557917, 5 μl), BV711 anti-CD4 (L200; cat. #563913, 5 μl), BB700 anti-CD8 (RPA-T8; cat. #566452, 5 μl), BUV737 anti-CD20 (2H7; cat. #612848, 5 μl), PE anti-CD45 (D058-1283; cat. #552833, 5 μl), BV786 anti-CCR5 (3A9; cat. #565001, 5 μl), BV496 anti-CD16 (3G8; cat. #612944, 5 μl), BUV661 anti-HLA-DR (G46-6; cat. #612980, 5 μl), BUV805 anti-CD14 (M5E2; cat. #565779, 5 μl) from BD Biosciences; APC-H7 anti-CD11b (ICRF44; cat. #47-0118-42, 5 μl), PE-Cy5 anti-CD95 (ICRF44; cat. #15-0959-42, 5 μl) from eBioscience; APC anti-α4β7, provided by the NIH Nonhuman Primate Reagent Resource (R24 OD010976, and NIAID contract HHSN272201300031C); BV605 anti-CCR6 (G034E3; cat. #353420, 5 μl), BV650 anti-CXCR3 (G025H7; cat. #353730, 5 μl), from Biolegend and PE-Cy7 anti-NKG2A (Z199; cat. #B10246, 5 μl) from Beckman coulter for 30 minutes at room temperature. This was followed by permeabilization with a FOX3-transcription buffer set (cat. #00-5523-00) from eBioscience according to the manufacture's recommendation and subsequently intracellular staining with the following: BV750 anti-TNF-α (MAB11; cat. #566359, 5 μl), BUV395 anti-IFN-γ (B27; cat. #563563, 5 μl), BV510 anti-GranB (GB11; cat. #563388, 5 μl), BV421 anti-IL-10 (JES3-9D7; cat. #564053, 5 μl), PE-CF594 anti-Ki67 (B56; cat. #567120, 5 μl) from BD Biosciences and FITC anti-Perforin (pf-344; cat. #3465-7, 5 μl) from MABTECH for 30 minutes at room temperature. Flow cytometry acquisitions were performed on a FACSYMPHONY™ A5 and examined using FACSDIVA™ software (BD Biosciences).

CD14^+ cells = assay: Efferocytosis assay using SAMT-247 and gp120 pooled peptides; type: cell-based, macaque
Description: Efferocytosis assay. The frequency of efferocytotic CD14^+ cells was assessed by Efferocytosis Assay kit (#601770, Cayman Chemical company, Ann Arbor, MI, USA). CD14^+ cells were used as effector cells, whereas apoptotic neutrophils were used as target cells. The protocol was readapted in order to use CD14^+ monocyte cells rather than differentiated macrophages due to the low cell availability. CD14^+ cells were isolated from cryopreserved PBMCs (10×10^6 cells) collected following pre-study and 2 weeks post last immunization (week 14) or 5 weeks post last immunization (week 17) by using non-human primate CD14 microbeads (#130-091-097, Miltenyi Biotec Inc.) and following manufacturer instructions. At the end of the separation cells were counted and stained with CYTOTELL™ Blue provided by the kit and following manufacturer instructions. One unrelated macaque was used as source of neutrophils as target cells. Neutrophils were isolated as previously described (Khandpur, R., et al., Sci Transl Med 5, 178ra140 (2013)). Briefly, following isolation of PBMCs by Ficoll Plaque (GE Healthcare), the cellular pellet was added to an equal volume of 20% dextran in water, gently mixed, and incubated for 1 min. Approximately three volumes of PBS were added, mixed again and incubated in the dark for 50-60 minutes. At the end of incubation, the clear layer at the top of the tube containing neutrophils was collected. Cells were pelleted and treated with ACK lysing buffer (Quality Biological, Gaithersburg, MD, USA) for 5 min at 37° C., washed with R10 and counted. Neutrophils were stained with CFSE provided by the kit and following manufacturer instructions. The apoptosis of neutrophils was induced by treatment with Staurosporine Apoptosis inducer provided by the kit. Briefly, isolated cells were resuspended in R10 containing Staurosporine diluted 1:1000 and incubated at 37° C. for 3 hours. At the end of the incubation cells were washed twice with R10 and used for the efferocytosis assay. Subsequently, effector and apoptotic target cells were cultured alone (as controls) or cocultured at a ratio of one effector CD14^+ cell and three target apoptotic neutrophils. Cells were incubated at 37° C. for 12 hours. At the end of the coculture, cells were washed with PBS, fixed with 1% paraformaldehyde in PBS and acquired on a FACSYMPHONY™ A5 and examined using FACSDIVA™ software (BD Biosciences) by acquiring all stained cells. Data were further analyzed using FlowJo v10.1 (Treestar, Inc., Ashland, OR). The frequency of efferocytotic CD14^+ cells was determined as the frequency of double-positive cells for CYTOTELL™ Blue and CFSE on the CYTOTELL™ Blue positive monocytes.
Efferocytosis assay using SAMT-247 and gp120 pooled peptides. Efferocytosis was done as described above with the exception that SAMT-247 and/or gp120 pooled peptides were added to the co-culture for 12 hours. SAMT-247 induced Efferocytosis was measured by subtracting Efferocytosis with no SAMT-247 treated effector cells from Efferocytosis with SAMT-247 treated effector cells.

CD14^+ monocytes = assay: Zinc chelation: macaque blood monocytes, SAMT-247 and/or gp120 peptides with or without TPEN; type: cell-based
Description: as §1

[1] = CD14^+ cells collected pre and two weeks after last immunization
[2] = sorted monocytes from PBMCs stimulated with gp120 peptides ± SAMT-247

## CC(=O)Sc1ccccc1C(=O)NCCC(N)=O [SAMT-247]
NKG2A^+ cells
  frequency of NKG2A^+ cells: increased
CD14^+ cells; [1]
  per-cell amount of engulfed apoptotic cells (MFI): augmented
  percentage of CD14^+ cells engulfing apoptotic cells: augmented
CD14^+ cells; Monocytes unstimulated or +gp120 peptides
  Function: >Efferocytosis
CD14^+ cells; [2]
  per-cell amount of cells engulfed (MFI): reconstituted
  percentage of CD14^+ cells engulfing apoptotic neutrophils: reconstituted
CD14^+ monocytes; Monocytes unstimulated or +gp120 peptides, * Zinc dependence
  Cytokine: >IL-10 *
CD14^+ monocytes; SAMT-247 alone or together with gp120 peptides
  IL-10 expression in CD14^+ monocytes: increased
